What was measured:
polarized Th17 cells = assay: IL-17 production in fully differentiated Th17 cells after re-stimulation; type: cell-based, mouse; settings: on re-stimulation
Method: We also tested whether FGIN-1-27 regulated IL-17 production in fully differentiated Th17 cells. […] Thus, FGIN-1-27 inhibits Th17 cell differentiation in vitro without compromising T cell activation or survival.
(h) Dose response plot showing effect of FGIN-1-27 on intracellular IL-17 and viability in pre- differentiated Th17 cells after re- stimulation. Data is normalized against […]
(i) Mean clinical scores of mice following active induction of EAE. Mice were injected i/p twice daily with vehicle or FGIN-1-27 for 7 days. Data are pooled from 5 mice/group. The error bars represent SEM.
(j) Binding of FGIN-1-27 to TSPO in a radioligand displacement assay. Inhibition of binding of control (radiolabeled PK-11195) was used to determine binding of FGIN- […]
(1 picture or pasted object on this page, not shown here)

ATF4 = assay: Western blot for ATF4; type: cell-based, mouse; settings: 24 hours, compared to DMSO controls
Method: (a) MA-plot showing shrunken log2 fold-changes of detected genes between the DMSO and FGIN-1-27 RNA-seq samples, ranked by average normalized count. Red dots indicate differentially expressed genes at adjusted p-value <0.05. (b) Transcript levels for the indicated genes after 24 hours of treatment with DMSO or FGIN-1-27 quantified by qPCR. The error bars represent SD. (c) Western blot analysis for phosphorylated eIF2α and ATF4 24 hours after treatment with DMSO or FGIN-1-27 (5 and 10 µM). Data are representative of 3 independent experiments. (d) Amino acids in Th17 cells measured 72 hours after treatment with FGIN-1-27. The error bars represent SD. (e) ROS was measured using cell permeant reagent 2′,7′ –dichlorofluorescin diacetate (DCFDA) at 24 hours following treatment with FGIN-1-27. Filled grey histogram-DMSO, dotted line-FGIN-1-27 (10 µM) and dashed line indicates FGIN-1-27 (5 µM). […] Data are normalized using DMSO treated cells as 100% and the error bars represent SD.
Cell lysates were prepared by lysis in RIPA buffer containing protease and phosphatase inhibitors and immunoblotting was performed by standard methods.
(a) W estern blot analysis for phosphorylated eIF2α and ATF4 24 hours after treatment
with DMSO or FGIN-1-27 (5 and 10 µM). […]
(a) Indicated sterols were measured in Th17 cells treated with DMSO or FGIN-1-27 for […]

CCCCCCN(CCCCCC)C(=O)Cc1c(-c2ccc(F)cc2)[nH]c2ccccc12 [FGIN-1-27, N, N-di-n-hexyl 2-(4-fluorophenyl) indole-3-acetamide]
IL-17 producing cells in fully differentiated Th17 cells (polarized Th17 cells): fewer IL-17 producing cells were detected
increase in ATF4 translation (ATF4): 2.8 fold

— PMC7048748, “Anxiolytic Drug FGIN-1-27 Ameliorates Autoimmunity by Metabolic Reprogramming of Pathogenic Th17 Cells” (Scientific Reports, 2020)
